Assay results as given in patent US9169224B2, “Piperazinyl and piperidinyl ureas as modulators of fatty acid amide hydrolase” (Janssen Pharmaceutica NV, priority 2004, dated 2015).
Counter-ions that a name gives are not always drawn.

Legend:
FAAH = FAAH (Homo sapiens (Human), UniProt O00519); experiment: Assay Method 1: FAAH assay, T84 cell homogenate, 3H-anandamide hydrolysis; type: biochemical; details: 3H-AEA tracer 200 nM, 1 h at rt
Procedure, shortened: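 Homogenate of human T84 cells in pH 9 Tris/EDTA buffer with 0.02% Triton X-100 was incubated with compound and 200 nM final 3H-anandamide for 1 h at rt. Released [3H]ethanolamine was separated from substrate through activated charcoal by centrifugation and quantified by scintillation counting.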

rat FAAH = rat FAAH (Rattus norvegicus (Rat), UniProt P97612); experiment: Assay Method 3: FAAH assay, cells transfected with rat FAAH; type: biochemical; details: T84 or rat FAAH-transfected SK-N-MC cell homogenate, 3H-AEA tracer 80 nM, 1 h at rt
rat FAAH, sequence (P97612 whole entry): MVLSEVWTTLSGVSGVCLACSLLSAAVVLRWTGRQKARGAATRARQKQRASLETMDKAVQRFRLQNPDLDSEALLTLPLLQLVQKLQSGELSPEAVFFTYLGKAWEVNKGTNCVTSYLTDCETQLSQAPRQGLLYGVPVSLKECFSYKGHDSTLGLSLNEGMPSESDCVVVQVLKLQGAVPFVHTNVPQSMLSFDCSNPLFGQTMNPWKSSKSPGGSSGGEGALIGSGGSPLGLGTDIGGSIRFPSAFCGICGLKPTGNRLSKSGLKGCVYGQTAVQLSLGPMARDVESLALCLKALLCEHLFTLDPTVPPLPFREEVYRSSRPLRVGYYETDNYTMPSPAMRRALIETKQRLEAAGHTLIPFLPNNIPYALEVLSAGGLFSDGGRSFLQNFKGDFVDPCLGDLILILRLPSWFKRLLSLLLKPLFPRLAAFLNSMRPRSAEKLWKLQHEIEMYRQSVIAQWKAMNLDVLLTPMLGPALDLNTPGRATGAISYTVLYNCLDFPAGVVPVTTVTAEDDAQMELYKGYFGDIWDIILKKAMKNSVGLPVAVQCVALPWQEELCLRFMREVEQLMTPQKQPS
Procedure: Assay Method 3 A. Transfection of Cells with Rat FAAH
A 10-cm tissue culture dish with a confluent monolayer of SK-N-MC cells was split 2 days (d) prior to transfection. Using sterile technique, the media was removed and the cells were detached from the dish by the addition of trypsin. One fifth of the cells were then placed onto a new 10-cm dish. Cells were grown in a 37° C. incubator with 5% CO2 in Minimal Essential Media Eagle with 10% Fetal Bovine Serum. After 2 d, cells were approximately 80% confluent. These cells were removed from the dish with trypsin and pelleted in a clinical centrifuge. The pellet was re-suspended in 400 μL complete media and transferred to an electroporation cuvette with a 0.4 cm gap between the electrodes. Supercoiled rat FAAH cDNA (1 μg) was added to the cells and mixed. The voltage for the electroporation was set at 0.25 kV, and the capacitance was set at 960 μF. After electroporation, the cells were diluted into complete media (10 mL) and plated onto four 10-cm dishes. Because of the variability in the efficiency of electroporation, four different concentrations of cells were plated. The ratios used were 1:20, 1:10, and 1:5, with the remainder of the cells being added to the fourth dish. The cells were allowed to recover for 24 h before adding the selection media (complete media with 600 μg/mL G418). After 10 d, dishes were analyzed for surviving colonies of cells. Dishes with well-isolated colonies were used. Cells from individual colonies were isolated and tested.
T84 frozen cell pellets or transfected SK-N-MC cells (contents of 1×15 cm culture dishes) were homogenized in 50 mL of FAAH assay buffer (125 mM Tris, 1 mM EDTA, 0.2% Glycerol, 0.02% Triton X-100, 0.4 mM Hepes, pH 9). The assay mixture consisted of 50 μL of the cell homogenate, 10 μL of the test compound, and 40 μL of anandamide [1-^3H-ethanolamine] (^3H-AEA, Perkin-Elmer, 10.3 Ci/mmol), which was added last, for a final tracer concentration of 80 nM. The reaction mixture was incubated at rt for 1 h. During the incubation, 96-well Multiscreen filter plates (catalog number MAFCNOB50; Millipore, Bedford, Mass., USA) were loaded with 25 μL of activated charcoal (Multiscreen column loader, catalog number MACL09625, Millipore) and washed once with 100 μL of MeOH. Also during the incubation, 96-well DYNEX MicroLite plates (catalog number NL510410) were loaded with 100 μL of MicroScint40 (catalog number 6013641, Packard Bioscience, Meriden, Conn., USA). After the 1 h incubation, 60 μL of the reaction mixture were transferred to the charcoal plates, which were then assembled on top of the DYNEX plates using Centrifuge Alignment Frames (catalog number MACF09604, Millipore). The unbound labeled ethanolamine was centrifuged through to the bottom plate (5 min at 2000 rpm), which was preloaded with the scintillant, as described above. The plates were sealed and left at rt for 1 h before counting on a Hewlett Packard TopCount.

FAAH, sequence (O00519 whole entry): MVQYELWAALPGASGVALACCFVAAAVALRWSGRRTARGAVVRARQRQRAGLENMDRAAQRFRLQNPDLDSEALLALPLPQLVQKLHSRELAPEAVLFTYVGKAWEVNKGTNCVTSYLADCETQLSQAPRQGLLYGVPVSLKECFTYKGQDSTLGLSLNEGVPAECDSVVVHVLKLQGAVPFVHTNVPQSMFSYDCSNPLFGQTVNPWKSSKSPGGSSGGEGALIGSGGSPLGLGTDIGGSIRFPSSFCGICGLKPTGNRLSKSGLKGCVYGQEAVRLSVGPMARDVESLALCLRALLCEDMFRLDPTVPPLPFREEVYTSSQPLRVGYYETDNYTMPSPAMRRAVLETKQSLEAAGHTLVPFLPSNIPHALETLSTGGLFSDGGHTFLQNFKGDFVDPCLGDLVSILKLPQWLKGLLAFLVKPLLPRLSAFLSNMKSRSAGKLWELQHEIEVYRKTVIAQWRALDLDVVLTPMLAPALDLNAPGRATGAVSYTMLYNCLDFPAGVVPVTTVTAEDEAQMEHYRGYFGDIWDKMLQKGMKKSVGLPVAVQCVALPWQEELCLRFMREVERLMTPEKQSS

| SMILES | IC50 (FAAH; hydrochloride) [nM] | IC50 (rat FAAH; hydrochloride) [nM] | IC50 (FAAH) [nM] | IC50 (rat FAAH) [nM] |
| --- | --- | --- | --- | --- |
| O=C(Nc1ccccc1)N1CCN(Cc2ccc(Br)c(Br)c2)CC1 [Example 162, 4-(3,4-Dibromo-benzyl)-piperazine-1-carboxylic acid phenylamide hydrochloride] | 38 | 270 |  |  |
| O=C(Nc1ccccc1)N1CCN(Cc2ccc3ccccc3n2)CC1 [Example 19, 4-Quinolin-2-ylmethyl-piperazine-1-carboxylic acid phenylamide] |  |  | 19 | 350 |
| Cn1c(CN2CCN(C(=O)Nc3ccccc3)CC2)cc2ccccc21 [Example 22, 4-(1-Methyl-1H-indol-2-ylmethyl)-piperazine-1-carboxylic acid phenylamide] |  |  | 26 | 1400 |
| O=C(Nc1ccc(F)cc1)N1CCN(Cc2ccc3ccccc3c2)CC1 [Example 57, 4-Naphthalen-2-ylmethyl-piperazine-1-carboxylic acid (4-fluoro-phenyl)-amide] |  |  | 54 | 430 |
| COc1cc(Br)cc(CN2CCN(C(=O)Nc3ccccc3)CC2)c1O [Example 26, 4-(5-Bromo-2-hydroxy-3-methoxy-benzyl)-piperazine-1-carboxylic acid phenylamide] |  |  | 79 | 130 |
| O=C(Nc1ccc(F)cc1)N1CCN(Cc2ccc3c(c2)OCO3)CC1 [Example G, 4-Benzo[1,3]dioxol-5-ylmethyl-piperazine-1-carboxylic acid (4-fluoro-phenyl)-amide, reference compound] |  |  | 1600 | 10000 |
| O=C(Nc1ccccc1)N1CCN(Cc2ccc3c(c2)OCO3)CC1 [Example B, 4-Benzo[1,3]dioxol-5-ylmethyl-piperazine-1-carboxylic acid phenylamide, reference compound] |  |  | 350 | 8000 |
| O=C(Nc1ccccc1)N1CCN(Cc2ccc3ccc4cccc5ccc2c3c45)CC1 [Example 68, 4-Pyren-1-ylmethyl-piperazine-1-carboxylic acid phenylamide] |  |  | 95 | 610 |
| O=C(Nc1ccc(F)cc1F)N1CCN(Cc2cnc3ccccc3c2)CC1 [Example 111, 4-Quinolin-3-ylmethyl-piperazine-1-carboxylic acid (2,4-difluoro-phenyl)-amide] |  |  | 250 | 2000 |
| O=C(Nc1ccccc1F)N1CCN(Cc2cnc3ccccc3c2)CC1 [Example 112, 4-Quinolin-3-ylmethyl-piperazine-1-carboxylic acid (2-fluoro-phenyl)-amide] |  |  | 61 | 370 |
| COc1cccc(Oc2cccc(CN3CCN(C(=O)Nc4ccccc4)CC3)c2)c1 [Example 135, 4-[3-(3-Methoxy-phenoxy)-benzyl]-piperazine-1-carboxylic acid phenylamide] |  |  | 83 |  |
| O=C(Nc1ccccc1)N1CCN(Cc2cccc3c2OCO3)CC1 [Example 51, 4-Benzo[1,3]dioxol-4-ylmethyl-piperazine-1-carboxylic acid phenylamide] |  |  | 6000 |  |
| CC(C)COc1ccc(CN2CCN(C(=O)Nc3ccccc3)CC2)cc1 [Example 124, 4-(4-Isobutoxy-benzyl)-piperazine-1-carboxylic acid phenylamide] |  |  | 1800 |  |
| O=C(Nc1ccccc1)N1CCN(Cc2ccc3c(c2)CCC3)CC1 [Example 30, 4-Indan-5-ylmethyl-piperazine-1-carboxylic acid phenylamide] |  |  | 180 |  |
| CC(C)COc1cccc(CN2CCN(C(=O)Nc3ccccc3)CC2)c1 [Example 121, 4-(3-Isobutoxy-benzyl)-piperazine-1-carboxylic acid phenylamide] |  |  | 210 |  |
| O=C(Nc1ccccc1)N1CCN(Cc2cc3ccccc3c3ccccc23)CC1 [Example 67, 4-Phenanthren-9-ylmethyl-piperazine-1-carboxylic acid phenylamide] |  |  | 8000 |  |
| Cc1cc(CN2CCN(C(=O)Nc3ccccc3)CC2)c(C)n1-c1cccc(C(F)(F)F)c1 [Example 83, 4-[2,5-Dimethyl-1-(3-trifluoromethyl-phenyl)-1H-pyrrol-3-ylmethyl]-piperazine-1-carboxylic acid phenylamide] |  |  | 480 |  |
| O=C(Nc1ccccc1)N1CCN(Cc2cnc3ccccc3c2)CC1 [Example 23, 4-Quinolin-3-ylmethyl-piperazine-1-carboxylic acid phenylamide] |  |  | 73 |  |
| CN(C)CCOc1cccc(CN2CCN(C(=O)Nc3ccccc3)CC2)c1 [Example 125, 4-[3-(2-Dimethylamino-ethoxy)-benzyl]-piperazine-1-carboxylic acid phenylamide] |  |  | 10000 |  |
| Cc1ccc(Oc2cccc(CN3CCN(C(=O)Nc4ccccc4)CC3)c2)cc1 [Example 62, 4-(3-p-Tolyloxy-benzyl)-piperazine-1-carboxylic acid phenylamide] |  |  | 18 |  |
| O=C(Nc1ccccc1)N1CCN(Cc2cccc(OS(=O)(=O)c3ccccc3)c2)CC1 [Example 138, Benzenesulfonic acid 3-(4-phenylcarbamoyl-piperazin-1-ylmethyl)-phenyl ester] |  |  | 59 |  |
| O=C(Nc1ccccc1)N1CCN(Cc2ccc3c(c2)CCO3)CC1 [Example 38, 4-(2,3-Dihydro-benzofuran-5-ylmethyl)-piperazine-1-carboxylic acid phenylamide] |  |  | 620 |  |
| O=C(Nc1ccccc1)N1CCN(Cc2cccc(OS(=O)(=O)c3ccc(Cl)cc3)c2)CC1 [Example 139, 4-Chloro-benzenesulfonic acid 3-(4-phenylcarbamoyl-piperazin-1-ylmethyl)-phenyl ester] |  |  | 380 |  |
| Cc1ccc(CN2CCN(C(=O)Nc3ccccc3)CC2)cc1 [Example E, 4-(4-Methyl-benzyl)-piperazine-1-carboxylic acid phenylamide, reference compound] |  |  | 1300 |  |
| CCCOc1ccc(CN2CCN(C(=O)Nc3ccccc3)CC2)cc1 [Example 123, 4-(4-Propoxy-benzyl)-piperazine-1-carboxylic acid phenylamide] |  |  | 1500 |  |
